Assay results from article PMC10105399 (European Journal of Medicinal Chemistry, 2023).
pIC50: −log10 of the molar value.

What was measured:
MERS-CoV 3CLpro = MERS-CoV 3CLpro (Middle East respiratory syndrome-related coronavirus, UniProt K9N7C7); type: biochemical
alpha-chymotrypsin = type: biochemical, human; conditions: read-out: IC50 Chymo-trypsin
SARS-CoV-2 3CLpro = SARS-CoV-2 3CLpro (Severe acute respiratory syndrome coronavirus 2, UniProt P0DTD1); type: biochemical

MERS-CoV 3CLpro, sequence (K9N7C7 3248-3553 limits assumed): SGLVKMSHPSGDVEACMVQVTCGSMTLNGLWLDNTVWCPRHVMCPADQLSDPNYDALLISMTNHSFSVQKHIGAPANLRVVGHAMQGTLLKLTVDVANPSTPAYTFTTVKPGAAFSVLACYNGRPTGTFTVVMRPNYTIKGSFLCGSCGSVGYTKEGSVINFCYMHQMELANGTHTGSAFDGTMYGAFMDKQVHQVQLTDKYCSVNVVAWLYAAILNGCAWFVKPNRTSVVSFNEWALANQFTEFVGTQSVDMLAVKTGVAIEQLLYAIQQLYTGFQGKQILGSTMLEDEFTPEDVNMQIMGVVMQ

Row | Structure (SMILES) | pIC50 (alpha-chymotrypsin) | also measured
1 | CC(C)C[C@H](NC(=O)OCC(C)(C)Sc1ccccc1)C(=O)N[C@H](C=O)C[C@@H]1CCNC1=O [1c, 2-Methyl-2-(phenylthio)propyl ((S)-4-methyl-1-oxo-1-(((S)-1-oxo-3-((S)-2-oxopyrrolidin-3-yl)propan-2-yl)amino)pentan-2-yl)carbamate] | < 4.30 | fold higher potency than 8c against MERS-CoV 3CLpro (MERS-CoV 3CLpro): ~2 fold; fold higher potency than 8c against SARS-CoV-2 3CLpro (SARS-CoV-2 3CLpro): 4.6 fold
2 | CC(C)C[C@H](NC(=O)OCC(C)(C)Sc1ccccc1)C(=O)N[C@@H](C[C@@H]1CCNC1=O)C(=O)C(=O)NC1CC1 [1e, 2-Methyl-2-(phenylthio)propyl ((S)-1-(((S)-4-(cyclopropylamino)-3,4-dioxo-1-((S)-2-oxopyrrolidin-3-yl)butan-2-yl)amino)-4-methyl-1-oxopentan-2-yl)carbamate] | < 4.30 | 
3 | CC(C)C[C@H](NC(=O)OCC(C)(C)Sc1ccccc1)C(=O)N[C@H](C#N)C[C@@H]1CCNC1=O [1g, 2-Methyl-2-(phenylthio)propyl ((S)-1-(((S)-1-cyano-2-((S)-2-oxopyrrolidin-3-yl)ethyl)amino)-4-methyl-1-oxopentan-2-yl)carbamate] | < 4.30 | 
4 | [2H]C([2H])(OC(=O)N[C@@H](CC(C)C)C(=O)N[C@H](C=O)C[C@@H]1CCNC1=O)C(C)(C)Sc1ccccc1 [2c, 2-Methyl-2-(phenylthio)propyl-1,1-d2 ((S)-4-methyl-1-oxo-1-(((S)-1-oxo-3-((S)-2-oxopyrrolidin-3-yl)propan-2-yl)amino)pentan-2-yl)carbamate] | < 4.30 | 
5 | CC(C)C[C@H](NC(=O)OCC(C)(C)Sc1cccc(Cl)c1)C(=O)N[C@H](C=O)C[C@@H]1CCNC1=O [7c, 2-((3-Chlorophenyl)thio)-2-methylpropyl ((S)-4-methyl-1-oxo-1-(((S)-1-oxo-3-((S)-2-oxopyrrolidin-3-yl)propan-2-yl)amino)pentan-2-yl)carbamate] | < 4.30 | 
6 | CC(C)C[C@H](NC(=O)OCC(C)(C)Sc1nc2ccccc2[nH]1)C(=O)N[C@H](C=O)C[C@@H]1CCNC1=O [9c, 2-((1H-benzo[d]imidazole-2-yl)thio)-2-methylpropyl ((S)-4-methyl-1-oxo-1-(((S)-1-oxo-3-((S)-2-oxopyrrolidin-3-yl)propan-2-yl)amino)pentan-2-yl)carbamate] |  | fold reduction in potency relative to 1c against MERS-CoV 3CLpro (MERS-CoV 3CLpro): 1.5 fold; fold less active than 1c against SARS-CoV-2 3CLpro (SARS-CoV-2 3CLpro): more than 4 fold
7 | CC(C)C[C@H](NC(=O)OCC(C)(C)Oc1ccccc1)C(=O)N[C@H](C=O)C[C@@H]1CCNC1=O [10c, 2-Methyl-2-phenoxypropyl ((S)-4-methyl-1-oxo-1-(((S)-1-oxo-3-((S)-2-oxopyrrolidin-3-yl)propan-2-yl)amino)pentan-2-yl)carbamate] |  | fold more potent than 1c against MERS-CoV 3CLpro (MERS-CoV 3CLpro): 2 fold; fold less active than 1c against SARS-CoV-2 3CLpro (SARS-CoV-2 3CLpro): more than 4 fold
8 | [2H]C([2H])(OC(=O)N[C@@H](CC(C)C)C(=O)N[C@H](C=O)C[C@@H]1CCNC1=O)C(C)(C)Oc1ccc(Cl)cc1 [12c, 2-(4-Chlorophenoxy)-2-methylpropyl-1,1-d2 ((S)-4-methyl-1-oxo-1-(((S)-1-oxo-3-((S)-2-oxopyrrolidin-3-yl)propan-2-yl)amino)pentan-2-yl)carbamate] | < 4.30 | 
9 | CC(C)C[C@H](NC(=O)OCC(C)(C)Oc1cccc(Cl)c1)C(=O)N[C@H](C=O)C[C@@H]1CCNC1=O [13c, 2-(3-Chlorophenoxy)-2-methylpropyl ((S)-4-methyl-1-oxo-1-(((S)-1-oxo-3-((S)-2-oxopyrrolidin-3-yl)propan-2-yl)amino)pentan-2-yl)carbamate] | < 4.30 | 
10 | CC(C)C[C@H](NC(=O)OCC(C)(C)Oc1ccc(F)cc1)C(=O)N[C@H](C=O)C[C@@H]1CCNC1=O [15c, 2-(4-Fluorophenoxy)-2-methylpropyl ((S)-4-methyl-1-oxo-1-(((S)-1-oxo-3-((S)-2-oxopyrrolidin-3-yl)propan-2-yl)amino)pentan-2-yl)carbamate] | < 4.30 | 
